Earlier results on 64 compounds are cited in article PMC7395068, “The evolution of strategies to minimise the risk of human drug-induced liver injury (DILI) in drug discovery and development” (Archives of Toxicology, 2020).

Where a name gives a salt, the structure may show the parent alone.

For one data set the following is noted: LTKB DILIrank category; ref Chen 2016; cited from earlier work.
`COC(=O)[C@H](c1ccccc1Cl)N1CCc2sccc2C1` [clopidogrel]: the DILI severity category result is on record as “vLess-DILI-Concern”. Regarding `C=CCOc1ccc(CC(=O)O)cc1Cl` [alclofenac], the DILI severity category entry was “vMost-DILI-Concern”. For the compound `Nc1ncnc2c1ncn2CCOCP(=O)(O)O` [adefovir], the DILI severity category entry is listed as “vLess-DILI-Concern”. `CC(C[N+](C)(C)C)OC(N)=O` (stereo not drawn) [bethanechol]: the DILI severity category result was “vNo-DILI-Concern”. Regarding `Nc1nc(Cl)nc2c1ncn2[C@@H]1O[C@H](CO)[C@@H](O)[C@@H]1F` [clofarabine], the DILI severity category entry is reported as “Ambiguous DILI-concern”.

The same data set, now with this note: binary DILI call; ref Chen 2016; cited from earlier work.
Take `CC(C[N+](C)(C)C)OC(N)=O` (stereo not drawn) [bethanechol]: the “DILI +VE (5-8), DILI -VE (-4)” value is “-VE”. Take `Nc1nc(Cl)nc2c1ncn2[C@@H]1O[C@H](CO)[C@@H](O)[C@@H]1F` [clofarabine]: the “DILI +VE (5-8), DILI -VE (-4)” value is listed as “-VE”.

The data set is the same for the next values; noted with them: binary in vivo DILI call given beside the severity category; ref Chen 2016; cited from earlier work.
Take `CC[C@@H](CO)NC(=O)[C@@H]1C=C2c3cccc4c3c(cn4C)C[C@H]2N(C)C1` [methysergide]: the “DILI +VE (5-8), DILI -VE (-4)” value is on record as “-VE”. Consider `O=C(O)c1cc(/N=N/c2ccc(O)c(C(=O)O)c2)ccc1O` [olsalazine], for which the “DILI +VE (5-8), DILI -VE (-4)” value is “+VE”. In the case of `CO[C@H]1/C=C/O[C@@]2(C)Oc3c(C)c(O)c4c(c3C2=O)C2=NC3(CCN(CC(C)C)CC3)NC2=C(NC(=O)/C(C)=C\C=C\[C@H](C)[C@H](O)[C@@H](C)[C@@H](O)[C@@H](C)[C@H](OC(C)=O)[C@@H]1C)C4=O` [rifabutin], the “DILI +VE (5-8), DILI -VE (-4)” value is recorded as “+VE”. Consider `OC[C@H]1O[C@@H](n2cnc3c2NC=NC[C@H]3O)C[C@@H]1O` [pentostatin], for which the “DILI +VE (5-8), DILI -VE (-4)” value was “+VE”.

`C=C1CC[C@@]2(O)[C@H]3Cc4ccc(O)c5c4[C@@]2(CCN3CC2CC2)[C@H]1O5` [nalmefene hydrochloride]: the “DILI +VE (5-8), DILI -VE (-4)” value was “-VE”. Turning to `FC(F)(F)C(F)(F)C(F)(F)F` [perflutren], the “DILI +VE (5-8), DILI -VE (-4)” value is “-VE”.

Staying with this data set, now noted: binary in vivo human DILI call; ref Chen 2016; cited from earlier work.
As to `C[C@@H](Cc1ccccc1)NC(=O)[C@@H](N)CCCCN` [lisdexamfetamine], the “DILI +VE (5-8), DILI -VE (-4)” value is “-VE”.

Still in this data set, the particulars now being: human DILI concern category (LTKB DILIrank); ref Chen 2016; cited from earlier work.
Regarding `CC[C@@H](CO)NC(=O)[C@@H]1C=C2c3cccc4c3c(cn4C)C[C@H]2N(C)C1` [methysergide], the DILI severity category entry is “vNo-DILI-Concern”. With `O=C(O)c1cc(/N=N/c2ccc(O)c(C(=O)O)c2)ccc1O` [olsalazine], the DILI severity category entry is listed as “vLess-DILI-Concern”. Regarding `CO[C@H]1/C=C/O[C@@]2(C)Oc3c(C)c(O)c4c(c3C2=O)C2=NC3(CCN(CC(C)C)CC3)NC2=C(NC(=O)/C(C)=C\C=C\[C@H](C)[C@H](O)[C@@H](C)[C@@H](O)[C@@H](C)[C@H](OC(C)=O)[C@@H]1C)C4=O` [rifabutin], the DILI severity category result is recorded as “vLess-DILI-Concern”. Turning to `OC[C@H]1O[C@@H](n2cnc3c2NC=NC[C@H]3O)C[C@@H]1O` [pentostatin], the DILI severity category result is listed as “vMost-DILI-Concern”. `C=C1CC[C@@]2(O)[C@H]3Cc4ccc(O)c5c4[C@@]2(CCN3CC2CC2)[C@H]1O5` [nalmefene hydrochloride]: the DILI severity category result is “Ambiguous DILI-concern”. `FC(F)(F)C(F)(F)C(F)(F)F` [perflutren]: the DILI severity category result is recorded as “vNo-DILI-Concern”.

Still in this data set, the particulars now being: human DILI, LTKB DILIrank category; ref Chen 2016; cited from earlier work.
As for `C[C@@H](Cc1ccccc1)NC(=O)[C@@H](N)CCCCN` [lisdexamfetamine], the DILI severity category result is recorded as “Ambiguous DILI-concern”.

Still in this data set, the particulars now being: in vivo; cited from earlier work.
In the case of `CCCCCCCN(CC)CCCC(O)c1ccc(NS(C)(=O)=O)cc1` (stereo not drawn) [ibutilide], the “DILI +VE (5-8), DILI -VE (-4)” value was “-VE” and the DILI severity category entry is recorded as “vNo-DILI-Concern”.

As for epoetin alfa, the “DILI +VE (5-8), DILI -VE (-4)” value is reported as “-VE” and the DILI severity category result is given as “vNo-DILI-Concern”.

For a further data set the following is noted: […]; cited from earlier work.
For `C#C[C@]1(O)CC[C@H]2[C@@H]3CCc4cc(OC)ccc4[C@H]3CC[C@@]21C` [mestranol], the “In vivo DILI” value is on record as “-VE”.

Consider `C[C@H](N)[C@H](O)c1cccc(O)c1` [metaraminol], for which the “In vivo DILI” value was “-VE”. With `CBr` [methyl bromide], the “In vivo DILI” value is “-VE”. As to `C[C@]12C=CC(=O)C=C1CC[C@H]1[C@@H]3C[C@@H](O)[C@](O)(C(=O)CO)[C@@]3(C)C[C@H](O)[C@@]12F` [triamcinolone], the “In vivo DILI” value is listed as “-VE”. Turning to `O=S(=O)([O-])[O-].[Fe+2]` [ferrous sulfate], the “In vivo DILI” value is on record as “+VE”. Turning to hemin, the “In vivo DILI” value is “-VE”. For the compound `CC1(C)O[C@@H]2C[C@H]3[C@@H]4C[C@H](F)C5=CC(=O)C=C[C@]5(C)[C@H]4[C@@H](O)C[C@]3(C)[C@]2(C(=O)CO)O1` [flunisolide], the “In vivo DILI” value is listed as “-VE”. `COc1ncnc(NS(=O)(=O)c2ccc(N)cc2)c1OC` [sulfadoxine]: the “In vivo DILI” value is listed as “-VE”. As for `COc1ccc(CN(CCN(C)C)c2ccccn2)cc1` [pyrilamine], the “In vivo DILI” value was “-VE”. Consider `Cc1coc2c1CCC(C)C2` (stereo not drawn) [menthofuran], for which the “In vivo DILI” value is on record as “+VE”. Take `CCCCC1C(=O)N(c2ccccc2)N(c2ccc(O)cc2)C1=O` (stereo not drawn) [oxyphenbutazone]: the “In vivo DILI” value is given as “+VE”.

Still in this data set, the particulars now being: assignment in O'Brien 2006; ref O'Brien 2006; cited from earlier work.
As for `C[C@H](CCC(=O)NCCS(=O)(=O)O)[C@H]1CC[C@H]2[C@@H]3CC[C@@H]4C[C@H](O)CC[C@]4(C)[C@H]3C[C@H](O)[C@]12C` [taurodeoycholic], the “In vivo DILI” value is recorded as “+VE”.

With `C[C@H](CCC(=O)NCCS(=O)(=O)O)[C@H]1CC[C@H]2[C@@H]3[C@H](O)C[C@@H]4C[C@H](O)CC[C@]4(C)[C@H]3C[C@H](O)[C@]12C` [taurocholic], the “In vivo DILI” value is “+VE”. On to `N[C@H]1C(O)O[C@H](CO)[C@@H](O)[C@@H]1O` (stereo partly drawn) [glucosamine], for which the “In vivo DILI” value is “+VE”. For the compound `[Na+].[OH-]` [sodium hydroxide], the “In vivo DILI” value was “+VE”. As to `O=C(O)CC[N+](=O)[O-]` [nitroproprionic acid], the “In vivo DILI” value is “+VE”. On to `ClC(Cl)(Cl)Cl` [carbon tetrachloride], for which the “In vivo DILI” value is recorded as “+VE”. For the compound `C[N+](C)(C)CC(=O)O.[Cl-]` [betaine hcl (acidic)], the “In vivo DILI” value is “+VE”. As to `CC(C)[C@@]1(O)[C@@H](OC(=O)c2ccc[nH]2)[C@@]2(O)[C@@]3(C)C[C@]4(O)O[C@@]5([C@H](O)[C@@H](C)CC[C@]35O)[C@@]2(O)[C@@]14C` [ryanodine], the “In vivo DILI” value is on record as “+VE”. Regarding `CCCCSCCC(N)C(=O)O` (stereo not drawn) [buthionine], the “In vivo DILI” value was “+VE”. Consider `CC(=O)Nc1ccc2c(c1)Cc1ccccc1-2` [acetamido uorene], for which the “In vivo DILI” value was “+VE”.

Consider `C=CCO` [ally alcohol], for which the “In vivo DILI” value was “+VE”. Consider `ClC=C(Cl)Cl` [trichloroethylene], for which the “In vivo DILI” value is given as “+VE”. As for `c1ccc2c(c1)cc1ccc3cccc4ccc2c1c34` [benzopyrene], the “In vivo DILI” value was “+VE”. As to `C[C@H](CCC(=O)NCCS(=O)(=O)O)[C@H]1CC[C@H]2[C@@H]3CC[C@@H]4C[C@H](O)CC[C@]4(C)[C@H]3CC[C@]12C` [taurolithocholic], the “In vivo DILI” value is listed as “+VE”. Regarding dichloroethylene, the “In vivo DILI” value is “+VE”. Consider `C=C1[C@@H](C)[C@H]2[C@H](Cc3ccccc3)NC(=O)[C@]23OC(=O)/C=C/[C@H](O)CCC[C@@H](C)C/C=C/[C@H]3[C@@H]1O` [cytochalasin b], for which the “In vivo DILI” value was “+VE”. With `C[C@H](CCC(=O)O)C[C@H](C)C[C@H](C)C(=O)/C=C(\O)[C@H](C)C[C@H](C)C/C=C/[C@@H](C)[C@@H](O)[C@@H](C)[C@@H](O)C[C@@H]1CC[C@@](C)([C@H]2CC[C@@](C)([C@@H](C)O)O2)O1` [ionomycin], the “In vivo DILI” value is “+VE”. Turning to `CN(C)N=O` [nitrosodimethylamine], the “In vivo DILI” value is “+VE”. Regarding `Brc1ccccc1` [bromobenzene], the “In vivo DILI” value was “+VE”. In the case of `C=C1[C@@H](C)[C@H]2[C@H](Cc3ccccc3)NC(=O)[C@]23[C@H](OC(C)=O)/C=C/[C@@](C)(O)C(=O)[C@@H](C)C/C=C/[C@H]3[C@@H]1O` [cytochalasin d], the “In vivo DILI” value is given as “+VE”. In the case of `CCSCC[C@H](N)C(=O)O` [ethionine], the “In vivo DILI” value is given as “+VE”.

Staying with this data set, now noted: in vivo; cited from earlier work.
As to `Cc1cccc(O)c1` [m-cresol], the “In vivo DILI” value is on record as “+VE”. `CCNC(=O)[C@@H]1CCCN1C(=O)[C@H](CCCNC(=N)N)NC(=O)[C@H](CC(C)C)NC(=O)[C@@H](CC(C)C)NC(=O)[C@H](Cc1ccc(O)cc1)NC(=O)[C@H](CO)NC(=O)[C@H](Cc1c[nH]c2ccccc12)NC(=O)[C@H](Cc1c[nH]cn1)NC(=O)[C@@H]1CCC(=O)N1` [leuprolide]: the “In vivo DILI” value was “-VE”. In the case of `COc1ccc2c3c1O[C@H]1C(=O)CC[C@H]4[C@@H](C2)N(C)CC[C@]314` [hydrocodone], the “In vivo DILI” value is reported as “-VE”. In the case of `CC/C(=C(/CC)c1ccc(O)cc1)c1ccc(O)cc1` [diethylsilbesterol], the “In vivo DILI” value is on record as “+VE”.

With `CC1(COc2ccc(CC3SC(=O)NC3=O)cc2)CCCCC1` (stereo not drawn) [ciglitizone], the “In vivo DILI” value is “-VE”. As to `C[C@]12CC[C@@H]3c4ccc(O)cc4CC[C@H]3[C@@H]1C[C@@H](O)[C@@H]2O` [estriol], the “In vivo DILI” value is reported as “-VE”. Take `CC[C@@]1([C@@H]2O[C@@H]([C@H]3O[C@@](O)(CO)[C@H](C)C[C@@H]3C)C[C@@H]2C)CC[C@H]([C@]2(C)CC[C@]3(C[C@H](O)[C@@H](C)[C@@H]([C@@H](C)[C@@H](OC)[C@H](C)C(=O)O)O3)O2)O1` [monensin]: the “In vivo DILI” value is listed as “+VE”. On to `O=C(O)CC(O)(CC(=O)O)C(=O)O` [citrate], for which the “In vivo DILI” value was “-VE”. For the compound `Cl` [hydrochloric acid], the “In vivo DILI” value is “+VE”. Regarding `C=O` [formaldehyde], the “In vivo DILI” value is recorded as “+VE”. Take `c1cc[n+]2c(c1)-c1cccc[n+]1CC2` [diquat]: the “In vivo DILI” value is listed as “+VE”. For `CC(N)C(O)c1ccccc1` (stereo not drawn) [phenylpropanolamine], the “In vivo DILI” value is recorded as “-VE”.

In the case of `C[N+]1(C)[C@@H]2C[C@@H](OC(=O)C(O)(c3cccs3)c3cccs3)C[C@H]1[C@@H]1O[C@@H]12` [tiotropium], the “In vivo DILI” value is listed as “-VE”.

As to `C=CCc1ccc(O)c(OC)c1` [eugenol], the “In vivo DILI” value is listed as “+VE”. For `O=C(O)CC(=O)O` [malonic acid], the “In vivo DILI” value is on record as “+VE”.

Consider `CN(C)[C@@H]1C(O)=C(C(N)=O)C(=O)[C@@]2(O)C(O)=C3C(=O)c4c(O)ccc(Cl)c4[C@@](C)(O)[C@H]3C[C@@H]12` [chlortetracycline], for which the “In vivo DILI” value is “+VE”. In the case of `CC1(C)[C@@H](O)CC[C@]2(C)[C@H]3C(=O)C=C4[C@@H]5C[C@@](C)(C(=O)O)CC[C@]5(C)CC[C@@]4(C)[C@]3(C)CC[C@@H]12` [18 beta-glycyrrhetic acid], the “In vivo DILI” value is “-VE”.

Still in this data set, the particulars now being: ref Schadt 2015; cited from earlier work.
As for `NC(=O)N1c2ccccc2CC(=O)c2ccccc21` [oxcarbazeptin], the “In vivo DILI” value was “+VE”.
